Reference: patent publication US12545685B2 (Daiichi Sankyo Company, Limited, priority 2011, dated 2026)

What follows are molecules tested against T1, Mdm2/p53 binding (GST-Mdm2 / His-p53) (Homo sapiens, UniProt Q00987, L33E) (assay: Mdm2/p53 binding assay (HTRF, His-p53 and GST-Mdm2)). Conditions: His-p53 (aa 1-132) and GST-Mdm2 (aa 25-108, L33E) 6.25 nM each; 25°C, 1 hour; values given as ranges.
T1 construct: Mdm2 partial protein having Mdm2 amino acids at positions 25 to 108
Method: A protein dilution containing 6.25 nM each of His-p53 (fusion protein of a p53 partial protein having p53 amino acids at positions 1 to 132, with a histidine protein) and GST-Mdm2 (fusion protein of an Mdm2 partial protein having Mdm2 amino acids at positions 25 to 108 with leucine residue 33 substituted by glutamic acid, with glutathione transferase) proteins was prepared using a protein buffer solution (20 mM HEPES pH 7.4, 150 mM NaCl, 0.1% BSA). This protein dilution was added in an amount of 8 μl/well to a 384-well plate (384-well low volume NBC, Corning Inc., catalog No: 3676).
Next, a test compound was diluted with DMSO to produce a protein buffer solution containing 10% dilution, and this buffer solution was added in an amount of 4 μl/well to the plate.
Subsequently, a solution containing an XL665-labeled anti-His antibody (HTRF monoclonal anti-6HIS antibody labeled with XL665 (catalog No: 61HISXLB), Schering/Cisbio Bioassays) and a europium (Eu)-labeled anti-GST antibody (HTRF monoclonal anti-GST antibody labeled with europium cryptate, Schering/Cisbio Bioassays, catalog No: 61GSTKLB) at concentrations of 2.5 μg/ml and 0.325 μg/ml, respectively, was prepared using an antibody diluting buffer solution (20 mM HEPES pH 7.4, 150 mM NaCl, 0.1% BSA, 0.5 M KF). These dilutions were added in an amount of 8 μl/well (total reaction solution volume: 20 μl/well). Then the plate was incubated at 25° ° C. for 1 hour.
Time-resolved fluorescence at 620 and 665 nm was measured at an excitation wavelength of 320 nm using a plate reader (ARVOsx, PerkinElmer Co., Ltd. or PHERAstar, BMG LABTECH). Ratio (R) was calculated using the measured values (RFU 620 nm and RFU 665 nm) according to the following formula: […]
BI: measured value at 665 nm of reaction solution (only each buffer solution) nonsupplemented with each protein, the compound, and the antibodies
A and D: each measured value at 665 nm and 620 nm of reaction solution supplemented with only Eu-labeled anti-GST antibody solution
The R value calculated from the well supplemented with His-p53, GST-Mdm2, the test compound, and each antibody was defined as R (sample). The R value calculated from the well supplemented with His-p53, GST-Mdm2, and each antibody but without the test compound was defined as R (control). The R value calculated from the well supplemented with GST-Mdm2 the test compound, and each antibody but without His-p53 was defined as R (background). T/C was calculated from the formula shown below. An IC50 value for Mdm2/p53 binding was calculated by sigmoid fitting.

T1 sequence (Q00987 25-108 L33E): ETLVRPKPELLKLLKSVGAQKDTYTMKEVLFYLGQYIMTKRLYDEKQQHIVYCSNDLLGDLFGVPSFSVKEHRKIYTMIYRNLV

Compound	IC50 [nM]
CC1(C)CCC2(CC1)N[C@@H](C(=O)N[C@H]1CC[C@](O)(CO)CC1)[C@H](c1ccnc(Cl)c1F)[C@]21C(=O)Nc2cc(Cl)ccc21 [Example 39]	50 to 100
CC1(C)CCC2(CC1)N[C@@H](C(=O)N[C@H]1CC[C@H](c3noc(=O)[nH]3)CC1)[C@H](c1ccnc(Cl)c1F)[C@]21C(=O)Nc2cc(Cl)ccc21 [Example 41, (3′R, 4′S,5′R)-6″-chloro-4′-(2-chloro-3-fluoropyridin-4-yl)-4,4-dimethyl-2″-oxo-N-[trans-4-(5-oxo-4,5-dihydro-1,2,4-oxadiazol-3-yl)cyclohexyl]-1″,2″-dihydrodispiro[cyclohexane-1,2′-pyrrolidine-3′,3″-indole]-5′-carboxamide]	1 to 50
CC1(C)CCC2(CC1)N[C@@H](C(=O)N[C@H]1CO[C@H](CO)[C@@H](O)C1)[C@H](c1cccc(Cl)c1F)[C@]21C(=O)Nc2cc(Cl)ccc21 [Example 42, (3′R, 4′S,5′R)-6″-chloro-4′-(3-chloro-2-fluorophenyl)-N-[(3R,5S,6R)-5-hydroxy-6-(hydroxymethyl)tetrahydro-2H-pyran-3-yl]-4,4-dimethyl-2″-oxo-1″,2″-dihydrodispiro[cyclohexane-1,2′-pyrrolidine-3′,3″-indole]-5′-carboxamide]	1 to 50
CO[C@H]1C[C@@H](NC(=O)[C@@H]2NC3(CCC(C)(C)CC3)[C@@]3(C(=O)Nc4cc(Cl)ccc43)[C@H]2c2cccc(Cl)c2F)CO[C@@H]1CO [Example 43, (3′R, 4′S,5′R)-6″-chloro-4′-(3-chloro-2-fluorophenyl)-N-[(3R,5S,6R)-6-(hydroxymethyl)-5-methoxytetrahydro-2H-pyran-3-yl]-4,4-dimethyl-2″-oxo-1″,2″-dihydrodispiro[cyclohexane-1,2′-pyrrolidine-3′,3″-indole]-5′-carboxamide]	100 to 500
CC(=O)N(CCO)C[C@@H]1CC[C@@H](NC(=O)[C@@H]2NC3(CCC(C)(C)CC3)[C@@]3(C(=O)Nc4cc(Cl)ccc43)[C@H]2c2ccnc(Cl)c2F)CO1 [Example 44]	1 to 50
CO[C@H]1C[C@@H](NC(=O)[C@@H]2NC3(CCC(C)(C)CC3)[C@@]3(C(=O)Nc4cc(Cl)ccc43)[C@H]2c2ccnc(Cl)c2F)CO[C@@H]1CO [Example 45, (3′R, 4′S,5′R)-6″-chloro-4′-(2-chloro-3-fluoropyridin-4-yl)-N-[(3R,5S,6R)-6-(hydroxymethyl)-5-methoxytetrahydro-2H-pyran-3-yl]-4,4-dimethyl-2″-oxo-1″,2″-dihydrodispiro[cyclohexane-1,2′-pyrrolidine-3′,3″-indole]-5′-carboxamide]	50 to 100
CC1(C)CCC2(CC1)N[C@@H](C(=O)N[C@@H]1CC[C@@H](C(C)(C)O)OC1)[C@H](c1cccc(Cl)c1F)[C@]21C(=O)Nc2cc(Cl)ccc21 [Example 46, (3′R, 4′S,5′R)-6″-chloro-4′-(3-chloro-2-fluorophenyl)-N-[(3R,6S)-6-(1-hydroxy-1-methylethyl)tetrahydro-2H-pyran-3-yl]-4,4-dimethyl-2′-oxo-1″; 2″-dihydrodispiro[cyclohexane-1,2′-pyrrolidine-3′,3″-indole]-5′-carboxamide]	1 to 50
CC1(C)CCC2(CC1)N[C@@H](C(=O)N[C@H]1CC[C@H](c3noc(=O)[nH]3)CC1)[C@H](c1cccc(Cl)c1F)[C@]21C(=O)Nc2cc(Cl)ccc21 [Example 48, (3′S,4′S,5′R)-6′-chloro-4′-(3-chloro-2-fluorophenyl)-4,4-dimethyl-2″-oxo-N-[trans-4-(5-oxo-4,5-dihydro-1,2,4-oxadiazol-3-yl)cyclohexyl]-1″,2″-dihydrodispiro[cyclohexane-1,2′-pyrrolidine-3′,3″-indole]-5′-carboxamide]	1 to 50
CC1(C)CCC2(CC1)N[C@@H](C(=O)N[C@@H]1CC[C@@H](c3nnco3)OC1)[C@H](c1ccnc(Cl)c1F)[C@]21C(=O)Nc2nc(Cl)ccc21 [Example 50, (3′R, 4′S,5′R)-6″-chloro-4′-(2-chloro-3-fluoropyridin-4-yl)-4,4-dimethyl-N-[(3R,6S)-6-(1,3,4-oxadiazol-2-yl)tetrahydro-2H-pyran-3-yl]-2″-oxo-1″,2″-dihydrodispiro[cyclohexane-1,2′-pyrrolidine-3′,3″-pyrrolo[2,3-b]pyridine]-3′-carboxamide]	50 to 100
CC1(C)CCC2(CC1)N[C@@H](C(=O)N[C@@H]1CC[C@@H](c3nnco3)OC1)[C@H](c1cccc(Cl)c1F)[C@]21C(=O)Nc2nc(Cl)ccc21 [Example 52, (3′R, 4′S,5′R)-6″-chloro-4′-(3-chloro-2-fluorophenyl)-4,4-dimethyl-N-[(3R,6S)-6-(1,3,4-oxadiazol-2-yl)tetrahydro-2H-pyran-3-yl]-2″-oxo-1″,2″-dihydrodispiro[cyclohexane-1,2′-pyrrolidine-3′,3″-pyrrolo[2,3-b]pyridine]-5′-carboxamide]	50 to 100
CC1(C)CCC2(CC1)N[C@@H](C(=O)N[C@@H]1CC[C@@H](c3n[nH]c(=O)o3)OC1)[C@H](c1cccc(Cl)c1F)[C@]21C(=O)Nc2nc(Cl)ccc21 [Example 55, (3′R, 4′S,5′R)-6″-chloro-4′-(3-chloro-2-fluorophenyl)-4,4-dimethyl-2″-oxo-N-[(3R,6S)-6-(5-oxo-4,5-dihydro-1,3,4-oxadiazol-2-yl)tetrahydro-2H-pyran-3-yl]-1″,2″-dihydrodispiro[cyclohexane-1,2′-pyrrolidine-3′,3″-pyrrolo[2,3-b]pyridine]-5′-carboxamide]	1 to 50
CC1(C)CCC2(CC1)N[C@@H](C(=O)N[C@@H]1CC[C@@H](c3n[nH]c(=O)o3)OC1)[C@H](c1ccnc(Cl)c1)[C@]21C(=O)Nc2cc(Cl)ccc21 [Example 56, (3′R, 4′R, 5′R)-6″-chloro-4′-(2-chloropyridin-4-yl)-4,4-dimethyl-2″-Oxo-N-[(3R,6S)-6-(5-oxo-4,5-dihydro-1,3,4-oxadiazol-2-yl)tetrahydro-2H-pyran-3-yl]-1″,2″-dihydrodispiro[cyclohexane-1,2′-pyrrolidine-3′,3″-indole]-5′-carboxamide]	1 to 50
CO[C@H]1C[C@@H](NC(=O)[C@@H]2NC3(CCC(C)(C)CC3)[C@@]3(C(=O)Nc4nc(Cl)ccc43)[C@H]2c2cccc(Cl)c2F)CO[C@@H]1CO [Example 58, (3′R, 4′S,5′R)-6″-chloro-4′-(3-chloro-2-fluorophenyl)-N-[(3R,5S,6R)-6-(hydroxymethyl)-5-methoxytetrahydro-2H-pyran-3-yl]-4,4-dimethyl-2″-oxo-1″,2″-dihydrodispiro[cyclohexane-1,2′-pyrrolidine-3′,3″-pyrrolo[2,3-b]pyridine]-5′-carboxamide]	50 to 100
CO[C@H]1C[C@@H](NC(=O)[C@@H]2NC3(CCC(C)(C)CC3)[C@@]3(C(=O)Nc4cc(Cl)ccc43)[C@H]2c2ccnc(Cl)c2)CO[C@@H]1CO [Example 59, (3′R, 4′R, 5′B)-6″-chloro-4′-(2-chloropyridin-4-yl)-N-[(3R,5S,6R)-6-(hydroxymethyl)-5-methoxytetrahydro-2H-pyran-3-yl]-4,4-dimethyl-2″-oxo-1″,2″-dihydrodispiro[cyclohexane-1,2′-pyrrolidine-3′,3″-indole]-5′-carboxamide]	50 to 100
COC[C@]1(O)CC[C@@H](NC(=O)[C@@H]2NC3(CCC(C)(C)CC3)[C@@]3(C(=O)Nc4cc(Cl)ccc43)[C@H]2c2ccnc(Cl)c2F)CC1 [Example 61, (3′R, 4′S,5′R)-6″-chloro-4′-(2-chloro-3-fluoropyridin-4-yl)-N-[cis-4-hydroxy-4-(methoxymethyl)cyclohexyl]-4,4-dimethyl-2″-oxo-1″,2″-dihydrodispiro[cyclohexane-1,2′-pyrrolidine-3′,3″-indole]-5′-carboxamide]	50 to 100
CC1(C)CCC2(CC1)N[C@@H](C(=O)N[C@@H]1CC[C@@H](c3ncon3)OC1)[C@H](c1cccc(Cl)c1F)[C@]21C(=O)Nc2nc(Cl)ccc21 [Example 62, (3′R, 4′S,5′R)-6″-chloro-4′-(3-chloro-2-fluorophenyl)-4,4-dimethyl-N-[(3R,6S)-6-(1,2,4-oxadiazol-3-yl)tetrahydro-2H-pyran-3-yl]-2″-oxo-1″,2″-dihydrodispiro[cyclohexane-1,2′-pyrrolidine-3′,3″-pyrrolo[2,3-b]pyridine]-5′-carboxamide]	50 to 100
